This experiment concerns SMN protein. The experiment in a line: cellular SMN ELISA (SMN protein elevation). The format is cell-based. The settings on record: myoblast cell line derived from SMNdelta7 mouse model; 24 hours compound treatment; concentration range 100 pM-10 uM. As to the method:
A cellular SMN ELISA was used to measure the effects of low molecular weight compounds on SMN protein elevation. Cells from a myoblast cell line derived from the SMNdelta7 mouse model (kind gift from Steve Burden, NYU) were seeded into a 384-well plate at a density of 3000 cells/well and treated with compounds for 24 hours. ELISA capture plates were prepared by coating 384-well plates (Immulon 4HBX) with 0.5 ug/mL of anti-SMN mAb (BD Science, Catalog number 610647) at 4° C. overnight. The plates were washed 5 times with 110 uL of PBS-Tween (0.05% Tween-20, PBST), blocked with 100 uL of 1% BSA in PBST for 2 hours and washed (5 times) with 100 uL of PBST. After 24 hours of compound treatment cells were lysed in a modified RIPA-buffer, on ice for 1 hour. 20 uL of lysate and 20 uL of 1% BSA were then added to the ELISA capture plates and incubated at 4° C. overnight. Plates were washed (5 times) with PBST and then incubated with 1:100 dilution of primary rabbit anti-SMN polyclonal antibody (Santa cruz, Catalog number SC-15320) at room temperature for 1 hour and subsequently washed (5 times) with 110 uL of PBST. This was followed by addition of 1:100 Goat anti-Rabbit IgG-HRP linked (Cell Signaling, Catalog number 7074) secondary antibody for 1 hour. Plates were then washed with PBST and incubated with 40 uL TMB substrate (Cell Signaling, Catalog number 7004L) at room temperature for 1-10 minutes with shaking. The reaction was stopped by addition of 40 uL of stop solution (Cell signaling, Catalog number 7002L) and absorption was measured at 450 nm. Data was reported as fold activation over DMSO control and EC50. ELISA assay condition: compound concentration range 100 pM-10 uM.
On the technique in general: An ELISA detects its analyte on a solid surface through an enzyme-linked reagent.

One may read the EC50 as the concentration needed to bring the measured effect to its halfway point. A low value points to an effect from little substance.

In the case of `COc1cc(-n2cccn2)ccc1-c1nnc(N(C)C2CC(C)(C)NC(C)(C)C2)s1` [Example 1, 5-(2-methoxy-4-(1H-pyrazol-1-yl)phenyl)-N-methyl-N-(2,2,6,6-tetramethylpiperidin-4-yl)-1,3,4-thiadiazol-2-amine], the midpoint of the response, the EC50, lay at 63 nM and the “SMN Activity Fold (fold activation over DMSO control)” value (“SMN Activity Fold” for short) is 2.45 fold. For `CN(c1nnc(-c2ccc3cc(O)ccc3c2)s1)C1CC(C)(C)NC(C)(C)C1` [Example 2, 6-(5-(Methyl(2,2,6,6-tetramethylpiperidin-4-yl)amino)-1,3,4-thiadiazol-2-yl)naphthalen-2-ol], the 50% effective concentration (EC50) is 436 nM and the “SMN Activity Fold” value came to 2.66 fold.

In the case of `COc1nc2ccccc2cc1-c1nnc(N(C)C2CC(C)(C)NC(C)(C)C2)s1` [Example 3, 5-(2-Methoxyquinolin-3-yl)-N-methyl-N-(2,2,6,6-tetramethylpiperidin-4-yl)-1,3,4-thiadiazol-2-amine], a half-maximal response (EC50) required 337 nM and the “SMN Activity Fold” value was found to be 2.67 fold.

As to `COc1cc2ccccc2cc1-c1nnc(N(C)C2CC(C)(C)NC(C)(C)C2)s1` [Example 4, 5-(3-Methoxynaphthalen-2-yl)-N-methyl-N-(2,2,6,6-tetramethylpiperidin-4-yl)-1,3,4-thiadiazol-2-amine], the EC50 was 887 nM and the “SMN Activity Fold” value was 2.48 fold.

Regarding `COc1cc(-n2cccn2)ccc1-c1nnc(NC2CC(C)(C)N(C)C(C)(C)C2)s1` [Example 5, 5-(2-Methoxy-4-(1H-pyrazol-1-yl)phenyl)-N-(1,2,2,6,6-pentamethylpiperidin-4-yl)-1,3,4-thiadiazol-2-amine], the EC50 is 87 nM and the “SMN Activity Fold” value is 2.88 fold. On the same counts, the results for `COc1cc(-c2cnn(C)c2)ccc1-c1nnc(N(C)C2CC(C)(C)NC(C)(C)C2)s1` [Example 6, 5-(2-Methoxy-4-(1-methyl-1H-pyrazol-4-yl)phenyl)-N-methyl-N-(2,2,6,6-tetramethylpiperidin-4-yl)-1,3,4-thiadiazol-2-amine] are 44 nM and 2.49 fold. On the same counts, the results for `COc1cc(-c2cn[nH]c2)ccc1-c1nnc(N(C)C2CC(C)(C)NC(C)(C)C2)s1` [Example 7, 5-(2-Methoxy-4-(1H-pyrazol-4-yl)phenyl)-N-methyl-N-(2,2,6,6-tetramethylpiperidin-4-yl)-1,3,4-thiadiazol-2-amine] are 38 nM and 2.86 fold. On the same counts, the results for `COc1cc(-c2ccn(C)c(=O)c2)ccc1-c1nnc(N(C)C2CC(C)(C)NC(C)(C)C2)s1` [Example 8, 4-(3-Methoxy-4-(5-(methyl(2,2,6,6-tetramethyl-piperidin-4-yl)amino)-1,3,4-thiadiazol-2-yl)phenyl)-1-methylpyridin-2(1H)-one] are 134 nM and 3.20 fold. Take `COc1cc(-c2ccc(O)nc2)ccc1-c1nnc(N(C)C2CC(C)(C)NC(C)(C)C2)s1` [Example 9, 5-(3-Methoxy-4-(5-(methyl(2,2,6,6-tetramethyl-piperidin-4-yl)amino)-1,3,4-thiadiazol-2-yl)phenyl)pyridin-2-ol]: it took 784 nM to reach a half-maximal effect (EC50) and the “SMN Activity Fold” value is listed as 2.46 fold.

Turning to `COc1cc(-c2ccc(=O)n(C)c2)ccc1-c1nnc(N(C)C2CC(C)(C)NC(C)(C)C2)s1` [Example 10, 5-(3-Methoxy-4-(5-(methyl(2,2,6,6-tetramethyl-piperidin-4-yl)amino)-1,3,4-thiadiazol-2-yl)phenyl)-1-methylpyridin-2(1H)-one], the EC50 amounted to 79 nM and the “SMN Activity Fold” value came to 2.65 fold. On the same counts, the results for `Cc1cc(-c2cnn(C)c2)ccc1-c1nnc(N(C)C2CC(C)(C)NC(C)(C)C2)s1` [Example 11, N-Methyl-5-(2-methyl-4-(1-methyl-1H-pyrazol-4-yl)phenyl)-N-(2,2,6,6-tetramethylpiperidin-4-yl)-1,3,4-thiadiazol-2-amine] are 684 nM and 2.84 fold. On the same counts, the results for `CN(c1nnc(-c2ccc(-c3ccn(C)c(=O)c3)cc2OC(F)(F)F)s1)C1CC(C)(C)NC(C)(C)C1` [Example 12, 1-Methyl-4-(4-(5-(methyl(2,2,6,6-tetramethyl-piperidin-4-yl)amino)-1,3,4-thiadiazol-2-yl)-3-(trifluoromethoxy)phenyl)pyridin-2(1H)-one] are 895 nM and 2.20 fold. Take `COc1cc(-c2c(C)n[nH]c2C)ccc1-c1nnc(N(C)C2CC(C)(C)NC(C)(C)C2)s1` [Example 13, 5-(4-(3,5-Dimethyl-1H-pyrazol-4-yl)-2-methoxy-phenyl)-N-methyl-N-(2,2,6,6-tetramethylpiperidin-4-yl)-1,3,4-thiadiazol-2-amine]: the “SMN Activity Fold” value is “inactive”. The same measure, in the same setting: next, `CN(c1nnc(-c2ccc(-c3cnn(C)c3)cc2C(F)(F)F)s1)C1CC(C)(C)NC(C)(C)C1` [Example 14]: “inactive”.

Regarding `CN(c1nnc(-c2ccc(-c3cnn(C)c3)cc2O)s1)C1CC(C)(C)NC(C)(C)C1` [Example 15, 2-(5-(Methyl(2,2,6,6-tetramethylpiperidin-4-yl)amino)-1,3,4-thiadiazol-2-yl)-5-(1-methyl-1H-pyrazol-4-yl)phenol], it took 32 nM to reach a half-maximal effect (EC50) and the “SMN Activity Fold” value stood at 3.14 fold. Regarding `CN(c1nnc(-c2ccc(-c3ccc(=O)n(C)c3)cc2O)s1)C1CC(C)(C)NC(C)(C)C1` [Example 17, 5-(3-Hydroxy-4-(5-(methyl(2,2,6,6-tetramethyl-piperidin-4-yl)amino)-1,3,4-thiadiazol-2-yl)phenyl)-1-methylpyridin-2(1H)-one], the EC50 came out at 36 nM and the “SMN Activity Fold” value came out at 2.74 fold. In the same order, the values of `CN(c1nnc(-c2ccc(-c3ccn(C)c(=O)c3)cc2O)s1)C1CC(C)(C)NC(C)(C)C1` [Example 18, 4-(3-Hydroxy-4-(5-(methyl(2,2,6,6-tetramethyl-piperidin-4-yl)amino)-1,3,4-thiadiazol-2-yl)phenyl)-1-methylpyridin-2(1H)-one] are 61 nM and 3.36 fold.

On to `CN(c1nnc(-c2ccc(-c3ccc(O)nc3)cc2O)s1)C1CC(C)(C)NC(C)(C)C1` [Example 19, 5-(3-Hydroxy-4-(5-(methyl(2,2,6,6-tetramethyl-piperidin-4-yl)amino)-1,3,4-thiadiazol-2-yl)phenyl)pyridin-2-ol], for which the EC50 stood at 51 nM and the “SMN Activity Fold” value stood at 2.85 fold. On the same counts, the results for `CN(c1nnc(-c2cc3ccc(O)cc3cc2O)s1)C1CC(C)(C)NC(C)(C)C1` [Example 20, 3-(5-(Methyl(2,2,6,6-tetramethylpiperidin-4-yl)amino)-1,3,4-thiadiazol-2-yl)naphthalene-2,7-diol] are 48 nM and 2.63 fold. Take `Oc1ccc2cc(-c3nnc(N4C[C@H]5CNC[C@H]5C4)s3)c(O)cc2c1` [Example 21, 3-(5-((3aR,6aS)-Hexahydropyrrolo[3,4-c]pyrrol-2(1H)-yl)-1,3,4-thiadiazol-2-yl)naphthalene-2,7-diol]: the half-maximal effective concentration (EC50) came to 323 nM and the “SMN Activity Fold” value worked out at 2.66 fold. In the same order, the values of `CN(c1nnc(-c2cc3ccccc3cc2O)s1)C1CC(C)(C)NC(C)(C)C1` [Example 22, 3-(5-(Methyl(2,2,6,6-tetramethylpiperidin-4-yl)amino)-1,3,4-thiadiazol-2-yl)naphthalen-2-ol.HBr] are 253 nM and 2.70 fold. In the same order, the values of `CN(c1nnc(-c2cc3ccccc3nc2O)s1)C1CC(C)(C)NC(C)(C)C1` [Example 23, 3-(5-(Methyl(2,2,6,6-tetramethylpiperidin-4-yl)amino)-1,3,4-thiadiazol-2-yl)quinolin-2-ol] are 231 nM and 2.66 fold. On the same counts, the results for `CN(c1nnc(-c2cc(-n3cccn3)ccc2O)s1)C1CC(C)(C)NC(C)(C)C1` [Example 24, 2-(5-(Methyl(2,2,6,6-tetramethylpiperidin-4-yl)amino)-1,3,4-thiadiazol-2-yl)-4-(1H-pyrazol-1-yl)phenol] are 987 nM and 2.28 fold.

For the molecule `CN(c1nnc(-c2ccc(-c3cnn(C)c3)cc2Cl)s1)C1CC(C)(C)NC(C)(C)C1` [Example 25, 5-(2-Chloro-4-(1-methyl-1H-pyrazol-4-yl)phenyl)-N-methyl-N-(2,2,6,6-tetramethylpiperidin-4-yl)-1,3,4-thiadiazol-2-amine], the midpoint of the response, the EC50, lay at 132 nM and the “SMN Activity Fold” value turned out to be 2.49 fold.

The values are drawn from US9040712B2, “Thiadiazole analogs thereof and methods for treating SMN-deficiency-related-conditions” (NOVARTIS AG, priority 2013, dated 2015).
